Reference: patent US20250081967A1, “PESTICIDALLY ACTIVE HETEROCYCLIC DERIVATIVES WITH SULFOXIMINE CONTAINING SUBSTITUENTS” (SYNGENTA CROP PROTECTION AG, priority 2021, published 2025)

Tests used:
Type in all cases: in vivo
Euschistus heros = experiment: Activity against Euschistus heros (neotropical brown stink bug), soybean leaf; conditions: 120 h, application rate 200 ppm, N-2 nymphs, 5 days after infestation, read-out: effect in at least one of the two categories (mortality or growth inhibition)
Experimental: Example B7: Activity Against Euschistus heros (Neotropical Brown Stink Bug)
Soybean leaf on agar in 24-well microtiter plates were sprayed with aqueous test solutions prepared from 10′000 ppm DMSO stock solutions. After drying the leaf were infested with N-2 nymphs. The samples were assessed for mortality and growth inhibition in comparison to untreated samples 5 days after infestation.

Plutella xylostella = experiment: Activity against Plutella xylostella (diamond back moth), artificial diet, L2 larvae; conditions: 120 h, application rate 200 ppm, 5 days after infestation, read-out: effect in at least one of the two categories (mortality or growth inhibition)
Experimental: Example B2: Activity Against Plutella xylostella (Diamond Back Moth)
(§1) 24-well microtiter plates with artificial diet were treated with aqueous test solutions prepared from 10′000 ppm DMSO stock solutions by pipetting. After drying, the plates were infested with L2 larvae (10 to 15 per well). The samples were assessed for mortality and growth inhibition in comparison to untreated samples 5 days after infestation.

Diabrotica balteata = experiment: Activity against Diabrotica balteata (corn root worm), maize sprouts; conditions: 96 h, application rate 200 ppm, L2 larvae, 4 days after infestation, read-out: effect in at least one of the two categories (mortality or growth inhibition)
Experimental: Example B3: Activity Against Diabrotica Balteata (Corn Root Worm)
as §1, with “Maize sprouts placed onto an agar layer in 24-well” for “24-well”, “plates” for “plates with artificial diet”, “spraying.” for “pipetting.”, “(6” for “(10”, “10” for “15”, “4” for “5”

Bemisia tabaci = experiment: Activity against Bemisia tabaci (cotton white fly), cotton leaf discs; conditions: foliar, 144 h, application rate 200 ppm, adult white flies, 6 days after incubation
Experimental: Example B6: Activity Against Bemisia tabaci (Cotton White Fly)
Cotton leaf discs were placed on agar in 24-well microtiter plates and sprayed with aqueous test solutions prepared from 10′000 ppm DMSO stock solutions. After drying the leaf discs were infested with adult white flies. The samples were checked for mortality 6 days after incubation.

Myzus persicae [1] = experiment: Activity against Myzus persicae (green peach aphid), systemic activity, pea seedlings; conditions: Myzus persicae, 144 h, test rate 24 ppm; systemic; 6 days after placing seedlings in test solutions
Experimental: Example B5: Activity Against Myzus persicae (Green Peach Aphid) Systemic Activity
Roots of pea seedlings infested with an aphid population of mixed ages were placed directly in the aqueous test solutions prepared from 10′000 DMSO stock solutions. The samples were assessed for mortality 6 days after placing seedlings in test solutions.

Spodoptera littoralis = experiment: Activity against Spodoptera littoralis (Egyptian cotton leaf worm), cotton leaf discs; conditions: foliar, 72 h, application rate 200 ppm, L1 larvae, 3 days after infestation, read-out: control (mortality, anti-feeding effect or growth inhibition)
Experimental: Example B1: Activity Against Spodoptera littoralis (Egyptian Cotton Leaf Worm)
Cotton leaf discs were placed onto agar in 24-well microtiter plates and sprayed with aqueous test solutions prepared from 10′000 ppm DMSO stock solutions. After drying the leaf discs were infested with five L1 larvae. The samples were assessed for mortality, anti-feeding effect, and growth inhibition in comparison to untreated samples 3 days after infestation. Control of Spodoptera littoralis by a test sample is given when at least one of the categories mortality, anti-feedant effect, and growth inhibition is higher than the untreated sample.

Myzus persicae [2] = experiment: Activity against Myzus persicae (green peach aphid), feeding/contact activity, sunflower leaf discs; conditions: Myzus persicae, foliar, 144 h, application rate 200 ppm; feeding/contact; 6 days after infestation
Experimental: Example B4: Activity Against Myzus persicae (Green Peach Aphid) Feeding/Contact Activity
Sunflower leaf discs were placed on agar in a 24-well microtiter plate and sprayed with aqueous test solutions prepared from 10′000 ppm DMSO stock solutions. After drying, the leaf discs were infested with an aphid population of mixed ages. The samples were assessed for mortality 6 days after infestation.

Chilo suppressalis = experiment: Activity against Chilo suppressalis (striped rice stemborer), artificial diet; conditions: 144 h, application rate 200 ppm, L2 larvae, 6 days after infestation
Experimental: Example B11: Activity Against Chilo suppressalis (Striped Rice Stemborer)
24-well microtiter plates with artificial diet were treated with aqueous test solutions prepared from 10′000 ppm DMSO stock solutions by pipetting. After drying, the plates were infested with L2 larvae (6-8 per well). The samples were assessed for mortality, anti-feeding effect, and growth inhibition in comparison to untreated samples 6 days after infestation. Control of Chilo suppressalis by a test sample is given when at least one of the categories mortality, anti-feedant effect, and growth inhibition is higher than the untreated sample.

CCS(=N)(=O)c1cc(C2(C#N)CC2)cnc1-c1nc2cc(C(F)(F)F)n(OC)c(=O)c2n1C (racemic) [Compound P8, 1-[5-(ethylsulfonimidoyl)-6-[5-methoxy-3-methyl-4-oxo-6-(trifluoromethyl)imidazo[4,5-c]pyridin-2-yl]-3-pyridyl]cyclopropanecarbonitrile]
≥ 80%: percent effect (mortality or growth inhibition) at 200 ppm (Euschistus heros) | percent effect (mortality or growth inhibition) at 200 ppm (Plutella xylostella) | percent effect (mortality or growth inhibition) at 200 ppm (Diabrotica balteata) | mortality at 200 ppm (Bemisia tabaci) | mortality at 24 ppm (Myzus persicae [1]) | percent control (mortality, anti-feedant effect or growth inhibition) at 200 ppm (Spodoptera littoralis) | mortality at 200 ppm (Myzus persicae [2])

CCS(=N)(=O)c1cc(OC(C)(C)C#N)cnc1-c1cn2ccc(C(F)(F)F)cc2n1 (racemic) [Compound P3, 2-[[5-(ethylsulfonimidoyl)-6-[7-(trifluoromethyl)imidazo[1,2-a]pyridin-2-yl]-3-pyridyl]oxy]-2-methyl-propanenitrile]
≥ 80%: percent effect (mortality or growth inhibition) at 200 ppm (Plutella xylostella) | percent effect (mortality or growth inhibition) at 200 ppm (Diabrotica balteata) | percent control (mortality, anti-feedant effect or growth inhibition) at 200 ppm (Spodoptera littoralis) | mortality at 200 ppm (Myzus persicae [2])

CCS(=N)(=O)c1cc(OC(C)(C)C#N)cnc1-c1cn2cnc(C(F)(F)F)cc2n1 (racemic) [Compound P11, 2-[[5-(ethylsulfonimidoyl)-6-[7-(trifluoromethyl)imidazo[1,2-c]pyrimidin-2-yl]-3-pyridyl]oxy]-2-methyl-propanenitrile]
≥ 80%: percent effect (mortality or growth inhibition) at 200 ppm (Plutella xylostella) | percent effect (mortality or growth inhibition) at 200 ppm (Diabrotica balteata) | mortality at 200 ppm (Bemisia tabaci) | mortality at 24 ppm (Myzus persicae [1]) | percent control (mortality, anti-feedant effect or growth inhibition) at 200 ppm (Spodoptera littoralis) | mortality at 200 ppm (Myzus persicae [2])

CCS(=N)(=O)c1cc(OC(C)(C)C#N)cnc1-c1nc2cc(C(F)(F)F)nnc2n1C (racemic) [Compound P15, 2-[[5-(ethylsulfonimidoyl)-6-[7-methyl-3-(trifluoromethyl)imidazo[4,5-c]pyridazin-6-yl]-3-pyridyl]oxy]-2-methyl-propanenitrile]
≥ 80%: percent effect (mortality or growth inhibition) at 200 ppm (Euschistus heros) | percent effect (mortality or growth inhibition) at 200 ppm (Plutella xylostella) | percent effect (mortality or growth inhibition) at 200 ppm (Diabrotica balteata) | mortality at 200 ppm (Bemisia tabaci) | mortality at 24 ppm (Myzus persicae [1]) | mortality at 200 ppm (Myzus persicae [2])

CCS(=N)(=O)c1cc(C2(C#N)CC2)cnc1-c1nc2cc(C(F)(F)F)cnc2n1C (racemic) [Compound P16, 1-[5-(ethylsulfonimidoyl)-6-[3-methyl-6-(trifluoromethyl)imidazo[4,5-b]pyridin-2-yl]-3-pyridyl]cyclopropanecarbonitrile]
≥ 80%: percent effect (mortality or growth inhibition) at 200 ppm (Plutella xylostella) | mortality at 200 ppm (Bemisia tabaci) | mortality at 24 ppm (Myzus persicae [1]) | mortality at 200 ppm (Myzus persicae [2])

CCn1c(C(F)(F)F)cc2nc(-c3ncc(C4(C#N)CC4)cc3S(=N)(=O)CC)n(C)c2c1=O (racemic) [Compound P14, 1-[6-[5-ethyl-3-methyl-4-oxo-6-(trifluoromethyl)imidazo[4,5-c]pyridin-2-yl]-5-(ethylsulfonimidoyl)-3-pyridyl]cyclopropanecarbonitrile]
≥ 80%: percent effect (mortality or growth inhibition) at 200 ppm (Euschistus heros) | percent effect (mortality or growth inhibition) at 200 ppm (Plutella xylostella) | percent effect (mortality or growth inhibition) at 200 ppm (Diabrotica balteata) | mortality at 200 ppm (Bemisia tabaci) | mortality at 24 ppm (Myzus persicae [1]) | percent control (mortality, anti-feedant effect or growth inhibition) at 200 ppm (Spodoptera littoralis) | mortality at 200 ppm (Myzus persicae [2])

CCS(=N)(=O)c1cc(OC(C)(C)C#N)c(C)nc1-c1nc2cc(C(F)(F)F)ncc2n1C (racemic) [Compound P17, 2-[[5-(ethylsulfonimidoyl)-2-methyl-6-[3-methyl-6-(trifluoromethyl)imidazo[4,5-c]pyridin-2-yl]-3-pyridyl]oxy]-2-methyl-propanenitrile]
≥ 80%: percent effect (mortality or growth inhibition) at 200 ppm (Plutella xylostella) | mortality at 200 ppm (Bemisia tabaci) | mortality at 24 ppm (Myzus persicae [1]) | percent control (mortality, anti-feedant effect or growth inhibition) at 200 ppm (Spodoptera littoralis) | mortality at 200 ppm (Myzus persicae [2])

CCS(=N)(=O)c1cc(C(C)(C)C#N)cnc1-c1nc2cc(C(F)(F)F)cnc2n1C (single isomer, unassigned) [Compound P12-B, 2-[5-(ethylsulfonimidoyl)-6-[3-methyl-6-(trifluoromethyl)imidazo[4,5-b]pyridin-2-yl]-3-pyridyl]-2-methyl-propanenitrile]
≥ 80%: percent control (mortality, anti-feedant effect or growth inhibition) at 200 ppm (Chilo suppressalis)

CCn1c(C(F)(F)F)cc2nc(-c3ncc(OC(C)(C)C#N)cc3S(=N)(=O)CC)n(C)c2c1=O (racemic) [Compound P19, 2-[[6-[5-ethyl-3-methyl-4-oxo-6-(trifluoromethyl)imidazo[4,5-c]pyridin-2-yl]-5-(ethylsulfonimidoyl)-3-pyridyl]oxy]-2-methyl-propanenitrile]
≥ 80%: percent effect (mortality or growth inhibition) at 200 ppm (Euschistus heros) | percent effect (mortality or growth inhibition) at 200 ppm (Plutella xylostella) | percent effect (mortality or growth inhibition) at 200 ppm (Diabrotica balteata) | mortality at 200 ppm (Bemisia tabaci) | mortality at 24 ppm (Myzus persicae [1]) | percent control (mortality, anti-feedant effect or growth inhibition) at 200 ppm (Spodoptera littoralis) | mortality at 200 ppm (Myzus persicae [2])

CCS(=N)(=O)c1cc(C2(C#N)CC2)ccc1-c1nc2cc(C(F)(F)F)cnc2n1C (racemic) [Compound P6, 1-[3-(ethylsulfonimidoyl)-4-[3-methyl-6-(trifluoromethyl)imidazo[4,5-b]pyridin-2-yl]phenyl]cyclopropanecarbonitrile]
≥ 80%: percent effect (mortality or growth inhibition) at 200 ppm (Euschistus heros) | percent effect (mortality or growth inhibition) at 200 ppm (Plutella xylostella) | mortality at 200 ppm (Bemisia tabaci) | mortality at 24 ppm (Myzus persicae [1]) | percent control (mortality, anti-feedant effect or growth inhibition) at 200 ppm (Spodoptera littoralis) | mortality at 200 ppm (Myzus persicae [2])

CCS(=N)(=O)c1cc(C(C)(C)C#N)cnc1-c1nc2cc(C(F)(F)F)cnc2n1C (racemic) [Compound P12, 2-[5-(ethylsulfonimidoyl)-6-[3-methyl-6-(trifluoromethyl)imidazo[4,5-b]pyridin-2-yl]-3-pyridyl]-2-methyl-propanenitrile]
≥ 80%: percent effect (mortality or growth inhibition) at 200 ppm (Plutella xylostella) | percent effect (mortality or growth inhibition) at 200 ppm (Diabrotica balteata) | mortality at 200 ppm (Bemisia tabaci) | mortality at 24 ppm (Myzus persicae [1]) | percent control (mortality, anti-feedant effect or growth inhibition) at 200 ppm (Spodoptera littoralis) | mortality at 200 ppm (Myzus persicae [2])

CCS(=N)(=O)c1cc(OC(C)(C)C#N)cnc1-c1nc2cc(C(F)(F)F)cnc2n1C (racemic) [Compound P9, 2-[[5-(ethylsulfonimidoyl)-6-[3-methyl-6-(trifluoromethyl)imidazo[4,5-b]pyridin-2-yl]-3-pyridyl]oxy]-2-methyl-propanenitrile]
≥ 80%: percent effect (mortality or growth inhibition) at 200 ppm (Euschistus heros) | percent effect (mortality or growth inhibition) at 200 ppm (Plutella xylostella) | percent effect (mortality or growth inhibition) at 200 ppm (Diabrotica balteata) | mortality at 200 ppm (Bemisia tabaci) | mortality at 24 ppm (Myzus persicae [1]) | percent control (mortality, anti-feedant effect or growth inhibition) at 200 ppm (Spodoptera littoralis) | mortality at 200 ppm (Myzus persicae [2])

CCS(=N)(=O)c1cc(OC(C)(C)C#N)c(C)nc1-c1nc2cc(C(F)(F)F)cnc2n1C (racemic) [Compound P5, 2-[[5-(ethylsulfonimidoyl)-2-methyl-6-[3-methyl-6-(trifluoromethyl)imidazo[4,5-b]pyridin-2-yl]-3-pyridyl]oxy]-2-methyl-propanenitrile]
≥ 80%: percent effect (mortality or growth inhibition) at 200 ppm (Euschistus heros) | percent effect (mortality or growth inhibition) at 200 ppm (Plutella xylostella) | percent effect (mortality or growth inhibition) at 200 ppm (Diabrotica balteata) | mortality at 200 ppm (Bemisia tabaci) | mortality at 24 ppm (Myzus persicae [1]) | percent control (mortality, anti-feedant effect or growth inhibition) at 200 ppm (Spodoptera littoralis) | mortality at 200 ppm (Myzus persicae [2])
